According to US20220133753A1, “COMPOSITIONS AND METHODS USEFUL FOR TREATING DISEASES CHARACTERIZED BY INSUFFICIENT PANTOTHENATE KINASE ACTIVITY” (Comet Therapeutics, Inc., priority 2016, published 2022):
“Also recorded” adds a separate entry of the source.

Assays:
[1] = test system: C. elegans pantothenate kinase (pnk-1) mutants; assay: C. elegans pnk-1 mutant motility and lifespan with CoA in the food; assay type: in vivo, Caenorhabditis elegans; settings: CoA added to the food
Procedure: C. elegans Media and Strains: Standard culturing conditions were used for C. elegans maintenance at 20° C. N2 strain was used as a wild-type control. VC927, the PANK deletion mutant pnk-1 (ok1435)I/hT2[bli-4(e937) let-? (q782)qIs48](I; III), was obtained from the Caenorhabditis Genetics Center. To obtain synchronous cultures, worms were bleached with hypochlorite, and allowed to hatch in M9 buffer (3 g KH2PO4, 6 g Na2HPO4, 5 g NaCl, 1 ml 1 M MgSO4, H2O to 1 liter) overnight and cultured on standard Nematode Growth Medium (NGM) plates seeded with OP50 strain of Escherichia coli.
C. elegans Motility Assay: After synchronization, L1 C. elegans were grown on control NMG plates or NGM plates containing various concentrations of CoA. One-day old adults were placed in a drop of M9 buffer and allowed to recover for 30 sec. During the following 30 sec, the number of body bends was counted. A movement was scored as a bend when both the anterior and posterior ends of the animal turned to the same side. At least 15 worms were scored per condition and each experiment was repeated thrice.

[2] = test system: Drosophila w1118 control fly line; assay: Drosophila HoPan toxicity and CoA rescue experiment (eclosion); assay type: in vivo; settings: CoA added to the food of the larvae
Text: Drosophila HoPan Toxicity and CoA Rescue Experiment: One week old w1118 flies (in the ratio 10 females and 5 males) were kept in vials containing standard fly food with or without HoPan and CoA at indicated concentrations. The flies were allowed to lay eggs for 2 days, after which the adults were discarded. The resulting offspring were allowed to develop. The numbers of flies which eclosed were counted to evaluate HoPan toxicity and CoA rescue efficiency.

[3] = test system: homozygous dPANK/fbl1 and dPANK/fblnull mutants; assay: Drosophila dPANK/fbl mutants, lifespan and development with CoA or Vitamin B5 in the food; assay type: in vivo, Drosophila melanogaster; settings: CoA added to the food
Procedure: (§1) Drosophila Maintenance and Crosses: Drosophila melanogaster stocks/crosses were raised on standard cornmeal agar fly food (containing water, agar 17 g/L, sugar 54 g/L, yeast extract 26 g/L and nipagin 1.3 g/L) at 25° C. The stocks were either obtained from the Bloomington Stock Centre (Indiana University, USA), VDRC (Vienna Drosophila RNAi Collection, Vienna, Austria) or from the Exelixis Collection (Harvard Medical School) and rebalanced to generate eGFP-positive balancers. The stocks used were: w1118; dPANK/fbl1 hypomorph5,6; dPANK/fblnull (y[1] w[*]; Mi{y[+mDint2]=MIC}fbl[MI04001]/TM3, Sb[1] Ser[1], Bloomington 36941); dPPCDC mutant (w[1118], PBac{w[+mC]=WH}Ppcdc[f00839]/CyO, Bloomington 18377); UAS-dPPCDCRNAi line (VDRC 104495); dCOASY mutant (PBac{RB}Ppat-Dpck[e00492], Exelixis). The UAS-RNAi constructs were expressed ubiquitously using the Actin-Gal4 drivers (y[1] w[*]; P{w[+mC]=Act5C-GAL4}25FO1/CyO, y[+], Bloomington 4414). […]
(§2) Drosophila Life Span: One-day old adults of Drosophila homozygous mutants or RNAi-constructs expressing lines, were collected with appropriate controls and were kept on standard fly food at 25° C. with or without CoA or Vitamin B5 (Sigma) at necessary concentration (50 ul added on top of the fly food and dried). The flies were counted every 12-24 hrs and flipped to new fly food vials with or without CoA or Vitamin B5.

[4] = test system: homozygous dPPCDC mutants and dPPCDC RNAi expressing flies; assay: Drosophila dPPCDC mutant and dPPCDC RNAi flies, development, lifespan and fertility with CoA or Vitamin B5; assay type: in vivo, Drosophila melanogaster
Procedure: as §1, §2
Drosophila Ovary Rescue Experiment: UAS-dPPCDC RNAi constructs were ubiquitously expressed under the control of Actin-Gal4. […] The vials (or plates) from the crosses (with eggs that were being laid during the 4 day period of CoA rescue) were kept for another 10 days and offspring numbers were counted after eclosion.
Drosophila Ovary dissection and staining: Drosophila ovaries were collected in cold PBS and fixed in 4% formaldehyde (from methanol-free 16% Formaldehyde Solution, Thermo Scientific) for 45 min at RT. […] Finally the samples were mounted in 80% glycerol and analyzed on a Zeiss-LSM780 NLO confocal microscope with Zeiss Zen software. […]

**Q.** For CC(C)(COP(=O)(O)OP(=O)(O)OC[C@H]1O[C@@H](n2cnc3c(N)ncnc32)[C@H](O)[C@@H]1OP(=O)(O)O)[C@@H](O)C(=O)NCCC(=O)NCCS [CoA, Coenzyme A], which “lifespan of pnk-1 mutants” value [1] is on record?
**A.** improved these phenotypes significantly

**Q.** What about the “motility of pnk-1 mutants” value [1] of the same compound?
**A.** improved these phenotypes significantly

**Q.** What about the “rescue of HoPan-induced phenotype (larval lethality, eclosion rate)” value [2] of the same compound?
**A.** fully rescued

**Q.** And the “lifespan with CoA” value ([3]; homozygous dPANK/fbl1 mutants, from 20 days without)?
**A.** 40 days

**Q.** And the “development with CoA” value ([3]; homozygous dPANK/fblnull mutants)?
**A.** extended development from the L2 stage to early pupal development

**Q.** What about the “egg production and fertility of females” value ([4]; dPPCDC RNAi expressing females) of the same compound?
**A.** improved egg-production significantly; also recorded: produced a significant number of eggs; also recorded: produced viable eggs that resulted in offspring

**Q.** What about the “lifespan with CoA” value ([4]; dPPCDC RNAi expressing flies, CoA added to the food, from 10 days without) of the same compound?
**A.** 30 days

**Q.** What about the “development with CoA” value ([4]; homozygous dPPCDC mutants, CoA added to the food) of the same compound?
**A.** extended larval development to late pupal stage
